Experimental data as given in the supplement of paper PMC10307832.

Experiments:
Experiment in all cases: relative viability (nuclei count vs DMSO), 5 days (fraction); higher = more cells survive
[1] = compound: Nc1ncn([C@H]2C[C@H](O)[C@@H](CO)O2)c(=O)n1 [Decitabine] + COc1cccc2cc(-c3nc([C@H]4CC[C@H](C(=O)O)CC4)n4ncnc(N)c34)[nH]c12 [OSI-027] (partner 0.5 µM)
In short: (§1)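 Lung cancer cell lines were seeded in 1536-well plates and dosed by pin tool the next day, with either a single drug or a fixed anchor-drug dose combined with five library-drug doses (not always all listed) spaced in √10 steps. Five days later, one step fixed the cells and stained their nuclei (final 0.05% Triton X-100, 1% formaldehyde, 1 ug/ml Hoechst), and nuclei were counted on 4× images. Relative viability is the nuclei count in treated wells divided by the count in vehicle wells, and each value is the median of duplicate plates.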

[2] = compound: Nc1ncn([C@H]2C[C@H](O)[C@@H](CO)O2)c(=O)n1 [Decitabine] + Nc1nc2[nH]cc(CCc3ccc(C(=O)N[C@@H](CCC(=O)O)C(=O)O)cc3)c2c(=O)[nH]1 [Pemetrexed] (partner 0.2 µM)
In short: as §1

[3] = compound: O=C(C[C@H]1NCCC[C@@H]1O)Cn1cnc2cc(Br)c(Cl)cc2c1=O (racemic) [Halofuginone] + Cc1nc(NC(=O)N2CCC[C@H]2C(N)=O)sc1-c1ccnc(C(C)(C)C(F)(F)F)c1 [Alpelisib] (partner 2 µM)
In short: as §1

[4] = compound: O=C(C[C@H]1NCCC[C@@H]1O)Cn1cnc2cc(Br)c(Cl)cc2c1=O (racemic) [Halofuginone] + Nc1nc2[nH]cc(CCc3ccc(C(=O)N[C@@H](CCC(=O)O)C(=O)O)cc3)c2c(=O)[nH]1 [Pemetrexed] (partner 0.2 µM)
In short: as §1

UMC-11
relative viability ([1]; first compound 0.04 µM): 0.46 | relative viability ([1]; first compound 0.1265 µM): 0.0004 | relative viability ([1]; first compound 0.4 µM): 0.411 | relative viability ([1]; first compound 1.265 µM): 0.316 | relative viability ([1]; first compound 4 µM): 0.363 | relative viability ([2]; first compound 0.04 µM): 0.691 | relative viability ([2]; first compound 0.1265 µM): 0.563 | relative viability ([2]; first compound 0.4 µM): 0.406 | relative viability ([2]; first compound 1.265 µM): 0.358 | relative viability ([2]; first compound 4 µM): 0.351 | relative viability ([3]; first compound 0.001 µM): 1.04 | relative viability ([3]; first compound 0.003162 µM): 0.909 | relative viability ([3]; first compound 0.01 µM): 0.989 | relative viability ([3]; first compound 0.03162 µM): 0.885 | relative viability ([3]; first compound 0.1 µM): 0.457 | relative viability ([4]; first compound 0.001 µM): 0.881 | relative viability ([4]; first compound 0.003162 µM): 0.834 | relative viability ([4]; first compound 0.01 µM): 0.727 | relative viability ([4]; first compound 0.03162 µM): 0.651 | relative viability ([4]; first compound 0.1 µM): 0.443
